Reference: paper PMC12516379, “Rotamer-Controlled Self-Immolative Linkers Enable Tunable Release of Neurosteroid Oxime Prodrugs” (ACS Medicinal Chemistry Letters, 2025)

What was measured:
[1] = Stability in acetate buffer pH 5.0 at room temperature via HPLC (UV); assay type: physicochemical
Protocol: (§1) Stability studies were conducted in PBS and acetate buffer utilizing high performance liquid chromatography for potential drug storage considerations. […]
(§2) All experiments were performed in duplicate and results are presented as the average of two experimental replicates.
(§3) 1.1 Aqueous Stability in PBS and Acetate Buffer via HPLC
(§4) Material and Instrumentation
(§5) HPLC grade acetonitrile (MeCN) […] HPLC grade water (H 2O), and formic acid (FA) were purchased from Fisher Scientific.
(§6) Puradisc 4 mm PTFE (0.45 μm) syringe filters from Cytiva. Gibco ® Dulbecco’s phosphate-buffered saline (DPBS 1X, no calcium, no magnesium, pH = 7.03) and acetate buffer (pH = 5.0, 10 mM) were purchased directly from Thermo Fisher Scientific and Cytiva, respectively.
(§7) Aqueous stability experiments were performed on an Agilent 1100 HPLC equipped with an Agilent G1315B diode array detector, an Agilent G1316A heated column compartment, and a Zorbax Eclipse XDB-C18 (4.6 x 150 mm, 5 μm) column.
(§8) Procedure for Aqueous Stability Experiments
(§9) Each sample was first weighed out in two separate 2.0 mL vials using an analytical balance.
(§10) Unless otherwise specified, the test compounds were then dissolved in the aqueous media (PBS or acetate buffer) at a standard concentration of 1 mg/mL. All mixtures were subsequently sonicated for approximately 30 sec. […]
(§11) min), precipitates observed in sample solutions were filtered with a PTFE syringe filter prior to analysis. Immediately after sample preparation, injection by the HPLC autosampler was performed, which was recorded as the initial time point (t = 0 min). Solutions were then kept in the autosampler at RT and reinjected at designated intervals without additional filtration or sample modification. Remaining prodrug was defined by the area under the curve (AUC) at 254 nm. Aqueous stability was ascertained by calculating the percentage of the parent compound remaining after each time point. Linear regression of the time (x-axis) vs. ln(%remaining) (y-axis) plot afforded the rate constant k (slope = -k). Pseudo first-order half-lives were then calculated by the following equation: t1/2 = 0.693/k.

[2] = Stability in PBS at room temperature via HPLC (UV); assay type: physicochemical; conditions: phosphate-buffered saline (DPBS)
Protocol: as §1, §2, §3, §4, §5, §6, §7, §8, §9, §10, §11

[3] = PBS stability assay at 37 °C via LC-MS/MS; assay type: physicochemical; conditions: for half-life at 3 µM: phosphate-buffered saline (DPBS), pH 7.03, PBS; for PBS, 37 °C %rem. at 2h (Table S23) / half-life at 3 µM: 37 °C
[4] = Plasma stability assay at 37 °C via LC-MS/MS, human plasma; assay type: in vitro ADME; conditions: for half-life at 3 µM: human, plasma;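 for all read-outs here: prodrugs at 3 µM incubated in human plasma at 37 °C, intact prodrug quantified by LC-MS/MS over time, values are means of duplicate runs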
[5] = Plasma stability assay via LC-MS/MS, rat plasma; assay type: in vitro ADME; conditions: read-out: t1/2 in rat plasma (Table S19) (converted)
Protocol: (§12) Building on our observation that rotamer control in the steric series can be modulated by enzymatic stabilization or activation, we next evaluated whether this effect was species dependent. To investigate this, we performed comparative stability studies by incubating select prodrugs (20a, 20b, 20l and 20t; Figure ) in mouse and rat plasma – two of the most commonly used preclinical species in drug development. This approach allowed us to assess the potential influence of species-specific enzymes on rotamer equilibria and, by extension, prodrug activation rates. The self-immolation profiles for the sterically tuned linker series (20a–b) reveal discernible, species-dependent differences prodrug stability. […] While the precise biochemical drivers remain unclear, this observation warrants further investigation beyond the scope of this work.
(§13) 1.2 Stability in Plasma and PBS via LCMS
(§14) Procaine (positive control) was purchased from Sigma-Aldrich. HPLC grade MeCN, MeOH, H2O, and FA were purchased from Fischer Scientific. Human plasma (cat. No. […]- […]
(§15) 0102242) were obtained from BIOIVT. DPBS 1X (no calcium, no magnesium, pH = 7.03) was purchased from Thermo Fischer Scientific. Stock solutions were prepared in 100% DMSO, and suitable dilutions of target analytes were prepared in 0.1% FA /MeCN for method development.
(§16) For PBS assay Gibco® Dulbecco’s phosphate-buffered saline (DPBS 1X, no calcium, no magnesium, pH = 7.03) was utilized. All experiments were performed in duplicate and results are presented as the average of two experimental replicates.
(§17) Procedure for Plasma Stability Assay
(§18) Test compounds and positive control (i.e. procaine) were dissolved in DMSO to make a 10 mM stock solution and subsequently diluted to 500 μM in 50% MeCN and PBS. This intermediate stock solution was prepared and added immediately prior to the start of each test compound experiment. Plasma was thawed at ambient temperature and aliquoted (663.0 μL) into 1.5 mL Eppendorf tubes. Plasma was incubated at 37 °C for 10 minutes in an incubator shaker at 150 rpm, and the reactions were initiated by addition of the test compound or positive control (4.0 µL, 3 μM). The spiked plasma samples were incubated at 37 °C. For designated time points, 75 µL aliquots were removed from the incubation mixture and immediately quenched in 150 µL of MeCN/0.1%FA with internal standard (ISTD, 2 µM d 5-7-ethoxy coumarin). […] The supernatant was transferred to an LC-MS vial and analyzed by LC/MS-MS. […]
(§19) LC–MS/MS analysis was performed using an Agilent 1260 Infinity II HPLC, coupled with an Agilent G6460 triple quadrupole mass spectrometer (Agilent Technologies, USA). All the data were acquired employing Agilent 6460 Quantitative Analysis data processing software. […]

[6] = Plasma stability assay via LC-MS/MS, mouse plasma; assay type: in vitro ADME; conditions: read-out: t1/2 in mouse plasma (Table S20) (converted)
Protocol: as §12, §13, §14, §15, §16, §17, §18, §19

[7] = Aqueous solubility by visual inspection in acetate buffer (pH 5); conditions: sodium acetate buffer
Protocol: For the solubility assessment, acetate buffer (pH 5) was selected as the media of choice to ensure prodrug stability during analysis.
High aqueous solubility was determined by visual inspection of 5 mg solid material in 0.5 mL
sodium acetate buffer solution. This media was selected to ensure stability of prodrugs during
dissolution in 50 mg/mL aqueous media.

[8] = Formation of progesterone oxime 3 from prodrugs in human plasma at 37 °C over 2 h; assay type: in vitro ADME; conditions: 2 h period
Protocol: Given the greater biological relevance of plasma, we focused on quantifying the formation of progesterone and allopregnanolone oxime in human plasma at 37 °C over a 2 h period. Results for selected progesterone prodrugs are presented in Figure A–C, illustrating the broad range of plasma cleavage rates as a function of promoiety design (see Figure S13 in Supporting Information for complete data set). Complete stability data for synthesized allopregnanolone prodrugs (Figures S18–S20) are provided in the Supporting Information. Given that their trends closely paralleled the progesterone series, they were not discussed in detail in the main text. […] This unexpected result prompted further investigation using computational modeling, described in the following section. […] Higher pK a values were associated with faster and more complete oxime formation, likely due to enhanced H-bonding which could stabilize the reactive syn-conformer. […] For the heterocyclic pyrrolidine and angle-strained series (Figure C), the release rates closely matched the experimentally determined prodrug half-lives (Table ), which were shorter in human plasma than in PBS. […] Although both 20s and 20t are capable of adopting the reactive syn-rotamer, their self-immolation reactivity diverged due to differences in linker geometry. The cyclopropane in 20s induces angle strain that hinders nucleophilic attack, rendering the compound stable under both PBS and plasma conditions. […] This intriguing result warrants further investigation, with follow-up studies currently in progress. Finally, the nucleophilic capacity of the amine tethers in prodrugs 20w–20z were evaluated based on their ability to cyclize in plasma, as detailed in the Supporting Information Figure S13.
as §13, §14, §15, §16, §17
Test compounds and positive control (i.e. procaine) were dissolved in DMSO to make a 10 mM stock solution and subsequently diluted to 500 μM in 50% MeCN and PBS. […] The supernatant was transferred to an LC-MS vial and analyzed by LC/MS-MS. […]

[9] = pH 5, acetate buffer pH 5.0, RT, 1 mg/mL, HPLC 254 nm, read-out: t1/2 in acetate buffer at RT (Tables S5-S8) (converted)
[10] = pH 5, acetate buffer pH 5.0, rt, HPLC (UV), read-out: Half-life (t½) pH 5.0 rt (converted)
[11] = pH 5, acetate buffer pH 5.0, rt, read-out: t½: pH 5.0, rt (Table S23) (converted)
[12] = pH 7.03, DPBS pH 7.03, RT, 1 mg/mL, HPLC 254 nm, read-out: t1/2 in PBS buffer at RT (Tables S1-S4) (converted)
[13] = pH 7.03, PBS, rt, HPLC (UV), read-out: Half-life (t½) PBS rt (converted)
[14] = pH 7.03, PBS, rt, read-out: t½: PBS, rt (Table S23) (converted)
[15] = 3 µM, LC-MS/MS, read-out: t1/2 in PBS at 37 °C (Tables S14-S17) (converted)
[16] = LC-MS/MS, read-out: Half-life (t½) PBS 37°C (converted)
[17] = read-out: PBS, 37 °C t½ (Table S23) (converted)
[18] = 3 µM, LC-MS/MS, read-out: t1/2 in human plasma at 37 °C (Tables S10-S13, S18) (converted)
[19] = LC-MS/MS, read-out: Half-life (t½) Plasma 37°C (converted)
[20] = read-out: Plasma, 37 °C t½ (Table S23) (converted)
[21] = pH 5, aqueous buffer, thermodynamic from solid

Question: What does the source list for `C/C(=N\OC(=O)N(C)C[C@@H]1CCCN1)[C@H]1CC[C@H]2[C@@H]3CCC4=CC(=O)CC[C@]4(C)[C@H]3CC[C@]12C.O=C(O)C(F)(F)F` [20l]?
Answer: half-life at 1 mg/mL [1, 9]: 7.29 days; half-life at 1 mg/mL [1, 10]: 7.29 days; half-life at 1 mg/mL [1, 11]: 7.29 days; half-life at 1 mg/mL [2, 12]: 114 ± 7.2 min; half-life at 1 mg/mL [2, 13]: 114 min; half-life at 1 mg/mL [2, 14]: 114 min; PBS, 37 °C %rem. at 2h (Table S23) ([3]; PBS): 8%; half-life at 3 µM [3, 15]: 44.4 min; half-life at 3 µM [3, 16]: 44.4 min; half-life at 3 µM [3, 17]: 44.4 min; Plasma, 37 °C %rem. at 2h (Table S23) [4]: 1%; half-life at 3 µM [4, 18]: 18.6 min; half-life at 3 µM [4, 19]: 18.6 min; half-life at 3 µM [4, 20]: 18.6 min; half-life at 3 µM [5]: 24 min; half-life at 3 µM [6]: 24 min; solubility [7, 21]: > 10000 µg/mL

Question: For `C/C(=N\OC(=O)N(C)C[C@@H]1CC(F)(F)CN1)[C@H]1CC[C@H]2[C@@H]3CCC4=CC(=O)CC[C@]4(C)[C@H]3CC[C@]12C` [20r], which “Prodrug stability / self-immolation in buffer, in words” value ([3]; PBS) is on record?
Answer: The value was “highly stable, noncleaving prodrug”.

Question: And the “PBS, 37 °C %rem. at 2h (Table S23)” value ([3]; PBS)?
Answer: Its value is 72%.

Question: What about the half-life at 3 µM [3, 15] of the same compound?
Answer: The half-life at 3 µM was 296 min.

Question: What about the half-life at 3 µM [3, 16] of the same compound?
Answer: The half-life at 3 µM was 296 min.

Question: What about the half-life at 3 µM [3, 17] of the same compound?
Answer: The half-life at 3 µM was 296 min.

Question: What about the “t1/2 in human plasma at 37 °C (Tables S10-S13, S18)” value ([4]; 3 µM, LC-MS/MS) of the same compound?
Answer: Its value is “stable”.

Question: What about the “Plasma, 37 °C %rem. at 2h (Table S23)” value [4] of the same compound?
Answer: Its value is “stable”.

Question: What about the “Half-life (t½) Plasma 37°C” value ([4]; LC-MS/MS) of the same compound?
Answer: Its value is “stable”.

Question: What about the half-life at 3 µM [4, 20] of the same compound?
Answer: Its half-life at 3 µM is > 1440 min.

Question: What about the “Formation/release of oxime 3 in human plasma, in words” value [8] of the same compound?
Answer: The value was “low levels of oxime”.

Question: What about the solubility ([7]; pH 5) of the same compound?
Answer: The solubility was < 10000 µg/mL.

Question: Which half-life at 1 mg/mL [1, 9] does the source give for `CNC1(CN(C)C(=O)O/N=C(\C)[C@H]2CC[C@H]3[C@@H]4CCC5=CC(=O)CC[C@]5(C)[C@H]4CC[C@]23C)CCC1` [20t] here?
Answer: Its half-life at 1 mg/mL is > 7 days.

Question: And the half-life at 1 mg/mL [1, 10]?
Answer: Its half-life at 1 mg/mL is > 7 days.

Question: And the half-life at 1 mg/mL [1, 11]?
Answer: The half-life at 1 mg/mL was > 7 days.

Question: And the half-life at 1 mg/mL [2, 12]?
Answer: The half-life at 1 mg/mL was 629 min.

Question: What about the half-life at 1 mg/mL [2, 13] of the same compound?
Answer: The half-life at 1 mg/mL was 629 min.

Question: What about the half-life at 1 mg/mL [2, 14] of the same compound?
Answer: The half-life at 1 mg/mL was 629 min.

Question: What about the “PBS, 37 °C %rem. at 2h (Table S23)” value ([3]; PBS) of the same compound?
Answer: Its value is 14%.

Question: What about the half-life at 3 µM [3, 15] of the same compound?
Answer: The half-life at 3 µM was 56.4 min.

Question: What about the half-life at 3 µM [3, 16] of the same compound?
Answer: The half-life at 3 µM was 56.4 min.

Question: And the half-life at 3 µM [3, 17]?
Answer: The half-life at 3 µM was 56.4 min.

Question: What about the “Plasma, 37 °C %rem. at 2h (Table S23)” value [4] of the same compound?
Answer: Its value is 4%.

Question: What about the half-life at 3 µM [4, 18] of the same compound?
Answer: The half-life at 3 µM was 26.4 min.

Question: And the half-life at 3 µM [4, 19]?
Answer: The half-life at 3 µM was 25.8 min.

Question: What about the half-life at 3 µM [4, 20] of the same compound?
Answer: Its half-life at 3 µM is 26.4 min.

Question: And the half-life at 3 µM [5]?
Answer: Its half-life at 3 µM is 27.6 min.

Question: And the half-life at 3 µM [6]?
Answer: Its half-life at 3 µM is 20.4 min.

Question: And the solubility [7, 21]?
Answer: Its solubility is > 10000 µg/mL.
